Where a name gives a salt, the structure may show the parent alone.
How the values were obtained:
[1] = target: T1, M1 muscarinic receptor (Homo sapiens, UniProt P11229); assay: Functional mobilization of intracellular calcium (FLIPR), M1-CHO cells; format: cell-based; conditions: for Emax: 100% efficacy is the maximum response obtained using Carbachol as a control; for M1 Activity: M1-CHO cells, FLIPR calcium mobilization
T1 construct: expressed in transfected cells; host or cells: CHO (M1-CHO)
T1 sequence (P11229 1-460): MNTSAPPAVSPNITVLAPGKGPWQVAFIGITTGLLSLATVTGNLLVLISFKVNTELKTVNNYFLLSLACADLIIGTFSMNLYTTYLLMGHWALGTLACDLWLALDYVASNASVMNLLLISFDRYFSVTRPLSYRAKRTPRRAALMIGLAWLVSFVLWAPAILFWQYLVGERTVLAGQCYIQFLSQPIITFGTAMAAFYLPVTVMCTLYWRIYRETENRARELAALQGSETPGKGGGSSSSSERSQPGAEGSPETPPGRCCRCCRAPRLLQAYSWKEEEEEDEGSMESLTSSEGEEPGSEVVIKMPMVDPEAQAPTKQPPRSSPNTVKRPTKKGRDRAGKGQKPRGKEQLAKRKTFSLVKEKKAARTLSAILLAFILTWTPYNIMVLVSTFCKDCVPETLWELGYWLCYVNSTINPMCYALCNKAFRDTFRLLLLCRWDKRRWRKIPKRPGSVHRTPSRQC
Description: (§1) Functional Mobilization of Intracellular Calcium to Determine Muscarinic Receptor Activity:
(§2) CHO cells expressing muscarinic receptors (M1 to M5) are grown as monolayers in tissue culture flasks at 37° C. in a humidified atmosphere containing 5% CO2 and passaged every 3-5 days. The growth media is Dulbecco's modified eagles medium (DMEM, Gibco Cat# 12430-054), containing 25 mM Hepes and supplemented with Fetal Bovine Serum (Hyclone, cat# SH30071.03), 0.1 mM of MEM non-essential amino acids (GIBCO, Cat# 11140-050), 1 mM MEM Sodium Pyruvate (GIBCO Cat# 11360-070) and 100 units/ml of Penicillin G and 100 μg/ml of Streptomycin (GIBCO Cat# 15140-122). The recombinant muscarinic receptor cell lines are grown under antibiotic pressure with media containing 25 μg/ml zeocin and 500 μg/ml G418 (M1-CHO), 4 μg/ml puromycin, 50 μg/ml zeocin and 2.5 μg/ml blasticidin (M2 and M4-CHO) or 50 μg/ml zeocin and 4 μg/ml puromycin (M3 and M5-CHO).
(§3) Cells are harvested at 80-90% confluence using Versene (GIBCO Cat# 15040-066), collected by centrifugation and seeded 18-24 hrs prior to running the calcium assay at a density of 5,000-10,000 cells/well in […], clear-bottomed 384-well plates (BD Biocoat, poly-D-lysine, Cat#356663). The day of the experiment, the cells are washed with a plate washer (Bioteck Instruments, ELX 405) using bath1 buffer (140-mM NaCl, 4.5-mM KCl, 2-mM CaCl2, 1-mM MgCl2, 10-mM Hepes-Na, 10-mM Glucose, pH 7.4, with NaOH) containing 1 mM Probenecid. Next, the calcium dye Fluo-3 (25 μl/well of Fluo-3 AM at 4 μM, Molecular Probes F-1241, in Bath 1 buffer containing 1 mM Probenecid) is added to the 25 μl of Bath 1 remaining in each well after the plate wash and the dye is loaded at 37° C. in the tissue culture incubator for 60-90 min. The fluorescent dye is removed using the plate washer with Bath 1 containing 1 mM Probenecid, leaving 25 μl/well of this solution after the wash. Alternatively, cells can be loaded with the calcium indicator from Molecular Devices (Calcium 3 Assay Reagents, Cat # R7181) adding 5 μl of a 5× solution dye in Bath 1 containing 1 mM Probenecid (10 ml per dye flask cat# R7182 to generate a solution 20×) to 20 μl of the same buffer. After loading for 60 min, the experiment can be run without having to remove the dye.
(§4) Compounds are prepared at a 2× fold concentration in a 96-well plate (round bottom, Costar Corning cat# 3656), by reconstituting the pre-spotted compounds in bath 1 containing 1 mM probenecid. The final concentration DMSO is 0.5%, and the amount of DMSO is normalized across the assay plate. To determine an agonist action of the compounds on muscarinic receptors, the reconstituted compounds are added (25 μl compound/well) to the cell assay plate (containing 25 μl/well) using the multi-channel robotic system of the FLIPR 3 Instrument (Molecular Devices, Sunnyvale, Calif.). To determine a functional inhibitory action of the compounds on muscarinic receptors, the reconstituted compounds are added (25 μl compound/well) to the assay plate and pre-incubated for 15 min prior to adding 25 μl of Carbachol at 3× the EC80 for each muscarinic subtype. Alternatively, the compounds can be co-applied simultaneously with the agonist. In both assay modes, the fluorescence is recorded for 60 sec (excitation wavelength is […] and emission wavelength 540 nm) using the FLIPR 3 instrument.
(§5) The potency, efficacy and selectivity of the muscarinic compounds were evaluated by screening the compound activity across the whole family (M1 to M5 cells). Compounds were also screened for activity on other proteins such as other GPCRs and ion channels to determine selectivity on M4 receptors.

[2] = target: T2, M4 muscarinic receptor (Homo sapiens, UniProt P08173); assay: Functional mobilization of intracellular calcium (FLIPR), M4-CHO cells; format: cell-based; conditions: for Emax: 100% efficacy is the maximum response obtained using Carbachol as a control; for M4 Activity: M4-CHO cells, FLIPR calcium mobilization
T2 construct: expressed in transfected cells; host or cells: CHO (M4-CHO)
T2 sequence (P08173 1-479): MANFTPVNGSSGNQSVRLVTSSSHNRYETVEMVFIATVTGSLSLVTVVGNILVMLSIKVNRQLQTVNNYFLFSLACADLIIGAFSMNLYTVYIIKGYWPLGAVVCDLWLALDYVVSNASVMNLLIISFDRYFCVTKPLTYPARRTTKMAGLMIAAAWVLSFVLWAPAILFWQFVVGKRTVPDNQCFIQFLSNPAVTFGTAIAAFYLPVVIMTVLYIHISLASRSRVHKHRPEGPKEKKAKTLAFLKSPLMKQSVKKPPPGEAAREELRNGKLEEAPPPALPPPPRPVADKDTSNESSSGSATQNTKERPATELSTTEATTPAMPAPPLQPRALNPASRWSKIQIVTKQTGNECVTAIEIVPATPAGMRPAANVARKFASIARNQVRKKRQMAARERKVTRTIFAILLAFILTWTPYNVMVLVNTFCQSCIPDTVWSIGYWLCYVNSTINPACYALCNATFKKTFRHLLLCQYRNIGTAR
Description: as §1, §2, §3, §4, §5

SMILES	Emax [1]	M1 Activity [1]	Emax [2]	M4 Activity [2]
CCOC(=O)N1CCC(C)(CN2CCC3(CC2)CN(C(C)=O)Cc2ccccc23)CC1 [compound 103, ethyl 4-((2-acetyl-2,3-dihydro-1H-spiro[isoquinoline-4,4′-piperidine]-1′-yl)methyl)-4-methylpiperidine-1-carboxylate hydrochloride]	25 to 100%	+++ (activity was measured to be less than 1.0 μM)	25 to 100%	+++ (activity was measured to be less than 1.0 μM)
CCCOc1ccc(CN2CCC3(CC2)CN(C(C)=O)Cc2ccccc23)cc1 [compound 100]	< 25%	+ (activity was measured to be greater than 5.0 μM)	< 25%	+ (activity was measured to be greater than 5.0 μM)
CCOC(=O)N1CCC(N2CCC3(CC2)CN(C(=O)c2ccccc2)Cc2ccccc23)CC1 [compound 221]	25 to 100%	+++ (activity was measured to be less than 1.0 μM)	25 to 100%	+++ (activity was measured to be less than 1.0 μM)
CCOC(=O)N1CCC(N2CCC3(CC2)CN(S(C)(=O)=O)Cc2ccccc23)CC1 [compound 311]	25 to 100%	+++ (activity was measured to be less than 1.0 μM)	25 to 100%	+++ (activity was measured to be less than 1.0 μM)
COCCOC(=O)N1C2CCC1CC(N1CCC3(CC1)CN(S(=O)(=O)N(C)C)Cc1ccccc13)C2 (stereo not drawn) [compound 249]	25 to 100%	+++ (activity was measured to be less than 1.0 μM)	25 to 100%	+++ (activity was measured to be less than 1.0 μM)
CCOC(=O)N1CCC(N2CCC3(CC2)CN(C(=O)c2ccno2)Cc2ccccc23)CC1 [compound 46]	25 to 100%	+++ (activity was measured to be less than 1.0 μM)	25 to 100%	+++ (activity was measured to be less than 1.0 μM)
CC(=O)N1Cc2ccccc2C2(CCN(C3CCN(C(=O)OC(C)(C)C)CC3)CC2)C1 [compound 177]	25 to 100%	+++ (activity was measured to be less than 1.0 μM)	< 25%	+ (activity was measured to be greater than 5.0 μM)
CCOC(=O)N1C2CCC1CC(N1CCC3(CC1)CN(C(=O)Nc1c(C)noc1C)Cc1ccccc13)C2.Cl (stereo not drawn) [compound 233, Ethyl 3-(2-(3,5-dimethylisoxazol-4-ylcarbamoyl)-2,3-dihydro-1H -spiro[isoquinoline-4,4′-piperidine]-1′-yl)-8-azabicyclo[3.2.1]octane-8-carboxylate hydrochloride]	25 to 100%	+++ (activity was measured to be less than 1.0 μM)	25 to 100%	+++ (activity was measured to be less than 1.0 μM)
CCOC(=O)N1CCC(N2CCC3(CC2)CN(CC2CCCCC2)Cc2ccccc23)CC1 [compound 87]	25 to 100%	++ (activity was measured to be from 1.0 μM to 5.0 μM)	< 25%	++ (activity was measured to be from 1.0 μM to 5.0 μM)
CCOC(=O)N1CCC(CN2CCC3(CC2)CN(S(=O)(=O)c2ccc(F)cc2)Cc2ccccc23)CC1 [compound 345]	25 to 100%	+++ (activity was measured to be less than 1.0 μM)	25 to 100%	+++ (activity was measured to be less than 1.0 μM)
COC(=O)N1CC(CN2CCC3(CC2)CN(C(C)=O)Cc2ccccc23)C1 [compound 50]	< 25%	+ (activity was measured to be greater than 5.0 μM)	< 25%	+ (activity was measured to be greater than 5.0 μM)
CCOC(=O)N1C2CCC1CC(N1CCC3(CC1)CN(C(=O)CC(C)(C)C)Cc1ccccc13)C2 (stereo not drawn) [compound 162]	25 to 100%	+++ (activity was measured to be less than 1.0 μM)	25 to 100%	+++ (activity was measured to be less than 1.0 μM)
CCOC(=O)N1CCC(CN2CCC3(CC2)CN(C(=O)C2CCC2)Cc2ccccc23)CC1 [compound 284]	25 to 100%	+++ (activity was measured to be less than 1.0 μM)	25 to 100%	+++ (activity was measured to be less than 1.0 μM)
CCOC(=O)N1CCC(N2CCC3(CC2)CN(C(=O)CC(C)C)Cc2ccccc23)CC1 [compound 229]	25 to 100%	+++ (activity was measured to be less than 1.0 μM)	25 to 100%	+++ (activity was measured to be less than 1.0 μM)
CCOC(=O)N1C2CCC1CC(N1CCC3(CC1)CN(S(=O)(=O)c1ccc(F)cc1)Cc1ccccc13)C2 (stereo not drawn) [compound 205, Ethyl 3-(2-(4-fluorophenylsulfonyl)-2,3-dihydro-1H-spiro-[isoquinoline-4,4′-piperidine]-1′-yl)-8-azabicyclo[3.2.1]-octane-8-carboxylate hydrochloride]	25 to 100%	+++ (activity was measured to be less than 1.0 μM)	25 to 100%	+++ (activity was measured to be less than 1.0 μM)
CC(=O)N1Cc2ccccc2C2(CCN(Cc3ccccc3Cl)CC2)C1 [compound 152]	< 25%	+ (activity was measured to be greater than 5.0 μM)	25 to 100%	++ (activity was measured to be from 1.0 μM to 5.0 μM)
CC(=O)N1Cc2ccccc2C2(CCN(Cc3nccs3)CC2)C1 [compound 98]	< 25%	+ (activity was measured to be greater than 5.0 μM)	< 25%	+ (activity was measured to be greater than 5.0 μM)
COC(=O)c1cccc(CN2CCC3(CC2)CN(C(C)=O)Cc2ccccc23)c1 [compound 105]	< 25%	+ (activity was measured to be greater than 5.0 μM)	< 25%	+ (activity was measured to be greater than 5.0 μM)
